The values below come from patent US5220050A, “Peptide mimetic compounds useful as platelet aggregation inhibitors” (G. D. Searle & Co., priority 1991, dated 1993).

Structures can show the parent of a compound that is named as a salt.

This assay concerns Platelet Aggregation in Dog PRP. Nature of the assay: In-Vitro Platelet Aggregation in PRP (ADP induced). It is filed as cell-based. The settings on record: Canis lupus familiaris, Platelet, in-vitro. As for the experimental part:
Healthy male or female dogs were fasted for 8 hours prior to drawing blood; then 30 ml whole blood was collected using a butterfly needle and 30 cc plastic syringe with 3 ml of 0.129 M buffered sodium citrate (3.8%). The syringe was rotated carefully as blood was drawn to mix the citrate. Platelet-rich plasma (PRP) was prepared by centrifugation at 975×g for 3.17 minutes at room temperature, allowing the centrifuge to coast to a stop without braking. The PRP was removed from the blood with a plastic pipette and placed in a plastic capped, 50 ml Corning conical sterile centrifuge tube which was held at room temperature. Platelet poor plasma (PPP) was prepared by centrifuging the remaining blood at 2000×g for 15 minutes at room temperature allowing the centrifuge to coast to a stop without braking. The PRP was adjusted with PPP to a count of 2-3×10^8 platelets per ml. 400 μl of the PRP preparation and 50 μl of the compound to be tested or saline were preincubated for 1 minute at 37° C. in a BioData aggregometer (BioData, Horsham, Pa.). 50 μl of adenosine 5'diphosphate (ADP) (50 μm final concentration) was added to the cuvettes and the aggregation was monitored for 1 minute. All compounds are tested in duplicate. Results are calculated as follows:
Percent of control=[(maximal OD minus initial OD of compound) divided by (maximal OD minus initial OD of control saline)]×100. The % inhibition=100-(percent of control).

The term IC50 denotes the concentration needed to halve the response being measured. A lower IC50 goes with inhibition by little substance. `N=C(N)c1ccc(CCCCC(=O)NC(CC(=O)O)c2ccccc2O)cc1` (racemic) [(±)-β-[[5-[4-(aminoiminomethyl)phenyl]-1-oxopentyl]amino-2-hydroxybenzenepropanoic acid] had a half-inhibitory concentration (IC50) of 2000 nM.

The compound `COc1ccc(C(CC(=O)O)NC(=O)CCCCc2ccc(C(=N)N)cc2)c(O)c1` (racemic) [(±)-β-[[5-[4-(aminoiminomethyl)phenyl]-1-oxopentyl]amino]-2-hydroxy-4-methoxybenzenepropanoic acid] showed an IC50 of 690 nM.

The compound `N=C(N)c1ccc(CCCCC(=O)NC(CC(=O)O)c2cccs2)cc1` (racemic) [(±)-β-[[5-[4-(aminoiminomethyl)phenyl]-1-oxopentyl]amino]-2-thiophenepropanoic acid] showed an IC50 of 1700 nM.

Take `C[n+]1cccc(C(CC(=O)O)NC(=O)CCCCc2ccc(C(=N)N)cc2)c1` (stereo not drawn) [3-[1-[[5-[4-(aminoiminomethyl)phenyl]-1-oxopentyl]amino]-2-carboxyethyl]-1-methylpyridinium chloride]: the half-inhibitory concentration (IC50) is 5800 nM.

Turning to `C=CC(CC(=O)O)NC(=O)CCCCc1ccc(C(=N)N)cc1` (stereo not drawn) [3-[[5-[4-(aminoiminomethyl)phenyl]-1-oxopentyl]amino]-4-pentenoic acid], the IC50 worked out at 9200 nM.

In turn, `CC(CCC(=O)NC(C)CC(=O)O)Cc1ccc(C(=N)N)cc1` (stereo not drawn) [3-[[5-[4-(aminoiminomethyl)phenyl]-4-methyl-1-oxopentyl]amino]butanoic acid] gave a half-inhibitory concentration (IC50) of 1250 nM.

In turn, `C[C@H](CC(=O)O)NC(=O)CCCCc1ccc(C(=N)N)cc1` [3R-[[5-[4-(aminoiminomethyl)phenyl]-1-oxopentyl]amino]butanoic acid] had a half-maximal inhibitory concentration (IC50) of 1300 nM.

Regarding `N=C(N)c1ccc(CCCCC(=O)NC(CC(=O)O)c2ccc(C(=N)N)cc2)cc1` (stereo not drawn) [4-(aminoiminomethyl)-β-[[5-[4-(aminoiminomethyl)phenyl]-1-oxopentyl]amino]benzenepropanoic acid], the midpoint of inhibition, the IC50, lay at 1800 nM.

`N=C(N)c1ccc(CCCCC(=O)NCCC(=O)O)cc1` [N-[5-[4 (aminoiminomethyl)phenyl]-1-oxopentyl]-β-alanine] yielded an IC50 of 6000 nM.

Compound `N=C(N)c1ccc(CCCCC(=O)NCC(O)C(=O)O)cc1` (stereo not drawn) [N-[5-[4-(Aminoiminomethyl)phenyl]-1-oxopentyl]-2-hydroxy-β-alanine] yielded a half-inhibitory concentration (IC50) of 10000 nM.

The compound `N=C(N)c1ccc(CCCCC(=O)NCCC(=O)OCc2ccccc2)cc1` [N-[5-[4-(Aminoiminomethyl)phenyl]-1-oxopentyl]-β-alanine, phenylmethyl ester] showed a 50% inhibitory concentration (IC50) of 5000 nM.

Regarding `N=C(N)c1ccc(CCCCC(=O)NCC(F)C(=O)O)cc1` (stereo not drawn) [N-[5-[4-(Aminoiminomethyl]phenyl]-1-oxopentyl]-2-fluoro-β-alanine], the IC50 worked out at 30000 nM.

`N=C(N)c1ccc(CCCCC(=O)NC(CC(=O)O)Cc2ccccc2)cc1` (stereo not drawn) [β-[5-[4-(Aminoiminomethyl)phenyl]-1-oxopentyl]amino]benzenebutanoic acid] had a half-inhibitory concentration (IC50) of 3000 nM.

Take `N=C(N)c1ccc(CCCCC(=O)NC(CC(=O)O)c2ccc(-c3ccccc3)cc2)cc1` (stereo not drawn) [β-[[5-[4-(Aminoiminomethyl)phenyl)-1-oxopentyl]amino][1,1'-biphenyl]-4-propanoic acid, acetate salt]: the IC50 was found to be 2300 nM.

In the case of `N=C(N)c1ccc(C#CCCC(=O)NC(CC(=O)O)c2ccccc2)cc1` (stereo not drawn) [β-[[5-[4-(aminoiminomethyl)phenyl]-1-oxo-4-pentynyl]amino]benzenepropanoic acid], the IC50 turned out to be 1800 nM.

Regarding `N=C(N)c1ccc(CCCCC(=O)NC(CC(=O)O)c2ccc3c(c2)OCO3)cc1` (stereo not drawn) [β-[[5-[4-(aminoiminomethyl)phenyl]-1-oxopentyl]amino]-1,3-benzodioxole-5-propanoic acid], the IC50 worked out at 280 nM.

`COc1ccc(C(CC(=O)O)NC(=O)CCCCc2ccc(C(=N)N)cc2)c(OC)c1` (stereo not drawn) [β-[[5-[4-(aminoiminomethyl)phenyl]-1-oxopentyl]amino]-2,4-dimethoxybenzenepropanoic acid] displayed an IC50 of 2500 nM.

For the compound `COc1ccc(OC)c(C(CC(=O)O)NC(=O)CCCCc2ccc(C(=N)N)cc2)c1` (stereo not drawn) [β-[[5-[4-(aminoiminomethyl)phenyl]-1-oxopentyl]amino]-2,5-dimethoxybenzenepropanoic acid], the IC50 amounted to 9000 nM.

`N=C(N)c1ccc(CCCCC(=O)NC(CC(=O)O)c2ccccc2F)cc1` (stereo not drawn) [β-[[5-[4-(aminoiminomethyl)phenyl]-1-oxopentyl]amino]-2-fluorobenzenepropanoic acid] had an IC50 of 5200 nM.

Compound `N=C(N)c1ccc(CCCCC(=O)NC(CC(=O)O)c2ccccn2)cc1` (stereo not drawn) [β-[[5-[4-(aminoiminomethyl)phenyl]-1-oxopentyl]amino]-2-pyridinepropanoic acid] showed an IC50 of 2300 nM.

`N=C(N)c1ccc(CCCCC(=O)NC(CC(=O)O)c2ccc(Cl)c(Cl)c2)cc1` (stereo not drawn) [β-[[5-[4-(aminoiminomethyl)phenyl]-1-oxopentyl]amino]-3,4-dichlorobenzenepropanoic acid] came in with a concentration for half-maximal inhibition (IC50) of 6800 nM.

`COc1ccc(C(CC(=O)O)NC(=O)CCCCc2ccc(C(=N)N)cc2)cc1OC` (stereo not drawn) [β-[[5-[4-(aminoiminomethyl)phenyl]-1-oxopentyl]amino]-3,4-dimethoxybenzenepropanoic acid]: half-maximal inhibition (IC50) required 530 nM.

As to `N=C(N)c1ccc(CCCCC(=O)NC(CC(=O)O)c2cc(Cl)cc(Cl)c2)cc1` (stereo not drawn) [β-[[5-[4-(aminoiminomethyl)phenyl]-1-oxopentyl]amino]-3,5-dichlorobenzenepropanoic acid], it took 6000 nM to reach half-maximal inhibition (IC50).

As to `COc1cc(OC)cc(C(CC(=O)O)NC(=O)CCCCc2ccc(C(=N)N)cc2)c1` (stereo not drawn) [β-[[5-[4-(aminoiminomethyl)phenyl]-1-oxopentyl]amino]-3,5-dimethoxybenzenepropanoic acid], the IC50 is 330 nM.

On to `N=C(N)c1ccc(CCCCC(=O)NC(CC(=O)O)c2cccc(C(F)(F)F)c2)cc1` (stereo not drawn) [β-[[5-[4-(aminoiminomethyl)phenyl]-1-oxopentyl]amino]-3-(trifluoromethyl)benzenepropanoic acid], for which the IC50 is 7000 nM.

`N#Cc1cccc(C(CC(=O)O)NC(=O)CCCCc2ccc(C(=N)N)cc2)c1` (stereo not drawn) [β-[[5-[4-(aminoiminomethyl)phenyl]-1-oxopentyl]amino]-3-cyanobenzenepropanoic acid] displayed an IC50 of 1400 nM.

`N=C(N)c1ccc(CCCCC(=O)NC(CC(=O)O)C2CC=CCC2)cc1` (stereo not drawn) [β-[[5-[4-(aminoiminomethyl)phenyl]-1-oxopentyl]amino]-3-cyclohexene-1-propanoic acid] registered a half-inhibitory concentration (IC50) of 4000 nM.

Take `N=C(N)c1ccc(CCCCC(=O)NC(CC(=O)O)c2cccc(F)c2)cc1` (stereo not drawn) [β-[[5-[4-(aminoiminomethyl)phenyl]-1-oxopentyl]amino]-3-fluorobenzenepropanoic acid]: inhibition was half-maximal at 1300 nM (IC50).

Turning to `COc1cccc(C(CC(=O)O)NC(=O)CCCCc2ccc(C(=N)N)cc2)c1` (stereo not drawn) [β-[[5-[4-(aminoiminomethyl)phenyl]-1-oxopentyl]amino]-3-methoxybenzenepropanoic acid], the midpoint of inhibition, the IC50, lay at 1300 nM.

Regarding `N=C(N)c1ccc(CCCCC(=O)NC(CC(=O)O)c2cccc(Oc3ccccc3)c2)cc1` (stereo not drawn) [β-[[5-[4-(aminoiminomethyl)phenyl]-1-oxopentyl]amino]-3-phenoxybenzenepropanoic acid], the IC50 stood at 5100 nM.

`N=C(N)c1ccc(CCCCC(=O)NC(CC(=O)O)c2cccnc2)cc1` (stereo not drawn) [β-[[5-[4-(aminoiminomethyl)phenyl]-1-oxopentyl]amino]-3-pyridinepropanoic acid] displayed an IC50 of 120 nM.

In turn, `N=C(N)c1ccc(CCCCC(=O)NC(CC(=O)O)c2ccc(OCc3ccccc3)cc2)cc1` (stereo not drawn) [β-[[5-[4-(aminoiminomethyl)phenyl]-1-oxopentyl]amino]-4-(phenylmethoxy)benzenepropanoic acid] showed a half-inhibitory concentration (IC50) of 1200 nM.

Turning to `N=C(N)c1ccc(CCCCC(=O)NC(CC(=O)O)c2ccc(C(F)(F)F)cc2)cc1` (stereo not drawn) [β-[[5-[4-(aminoiminomethyl)phenyl]-1-oxopentyl]amino]-4-(trifluoromethyl)benzenepropanoic acid], the half-inhibitory concentration (IC50) amounted to 4300 nM.

Compound `N=C(N)c1ccc(CCCCC(=O)NC(CC(=O)O)c2ccc(Br)cc2)cc1` (stereo not drawn) [β-[[5-[4-(aminoiminomethyl)phenyl]-1-oxopentyl]amino]-4-bromobenzenepropanoic acid] had an IC50 of 3100 nM.

For `N=C(N)c1ccc(CCCCC(=O)NC(CC(=O)O)c2ccc(C(=O)O)cc2)cc1` (stereo not drawn) [β-[[5-[4-(aminoiminomethyl)phenyl]-1-oxopentyl]amino]-4-carboxybenzenepropanoic acid], the half-maximal inhibitory concentration (IC50) was found to be 1300 nM.

The compound `N=C(N)c1ccc(CCCCC(=O)NC(CC(=O)O)c2ccc(Cl)cc2)cc1` (stereo not drawn) [β-[[5-[4-(aminoiminomethyl)phenyl]-1-oxopentyl]amino]-4-chlorobenzenepropanoic acid] gave an IC50 of 2800 nM.

The compound `N#Cc1ccc(C(CC(=O)O)NC(=O)CCCCc2ccc(C(=N)N)cc2)cc1` (stereo not drawn) [β-[[5-[4-(aminoiminomethyl)phenyl]-1-oxopentyl]amino]-4-cyanobenzenepropanoic acid] showed an IC50 of 1300 nM.

As to `CCOc1ccc(C(CC(=O)O)NC(=O)CCCCc2ccc(C(=N)N)cc2)cc1` (stereo not drawn) [β-[[5-[4-(aminoiminomethyl)phenyl]-1-oxopentyl]amino]-4-ethoxybenzenepropanoic acid], the 50% inhibitory concentration (IC50) worked out at 400 nM.

`N=C(N)c1ccc(CCCCC(=O)NC(CC(=O)O)c2ccc(F)cc2)cc1` (stereo not drawn) [β-[[5-[4-(aminoiminomethyl)phenyl]-1-oxopentyl]amino]-4-fluorobenzenepropanoic acid] gave a concentration for half-maximal inhibition (IC50) of 3000 nM.
